Reference: the NIST ThermoML archive (doi:10.1016/j.jct.2017.07.008)
Several values for one entry are separate records, joined by “and”; a condition that tells them apart may be missing. Equal entries are not always repeated.

Details: for surface tension liquid-gas: Drop volume; for viscosity / speed of sound / mass density: Liquid; for viscosity: Capillary tube (Ostwald / Ubbelohde) method; for speed of sound: Frequency=3 MHz, Single path-length method; for mass density: Vibrating tube method

OCc1cccs1 [2-thiophenemethanol]
Details | surface tension liquid-gas [mN/m]
283.15 K | 45.2
285.65 K | 44.93
288.15 K | 44.61
290.65 K | 44.39
293.15 K | 44.13
295.65 K | 43.83
298.15 K | 43.56
300.65 K | 43.29
303.15 K | 43.04
305.65 K | 42.78
308.15 K | 42.54
310.65 K | 42.27
313.15 K | 41.96

Details | mass density | speed of sound [m/s] | viscosity [mPa·s]
283.15 K, 100 kPa | 1215.5 kg/m3 | 1545.7 | 13.16
283.15 K, 2000 kPa | 1216.47 kg/m3 | – | –
283.15 K, 5000 kPa | 1217.99 kg/m3 | – | –
283.15 K, 7000 kPa | 1218.98 kg/m3 | – | –
283.15 K, 10000 kPa | 1220.46 kg/m3 | – | –
283.15 K, 15000 kPa | 1222.87 kg/m3 | – | –
283.15 K, 20000 kPa | 1225.22 kg/m3 | – | –
283.15 K, 25000 kPa | 1227.52 kg/m3 | – | –
283.15 K, 30000 kPa | 1229.77 kg/m3 | – | –
283.15 K, 35000 kPa | 1231.96 kg/m3 | – | –
283.15 K, 40000 kPa | 1234.11 kg/m3 | – | –
283.15 K, 45000 kPa | 1236.21 kg/m3 | – | –
283.15 K, 50000 kPa | 1238.27 kg/m3 | – | –
283.15 K, 55000 kPa | 1240.29 kg/m3 | – | –
283.15 K, 60000 kPa | 1242.27 kg/m3 | – | –
283.15 K, 65000 kPa | 1244.21 kg/m3 | – | –
285.65 K, 100 kPa | 1213.3 kg/m3 | 1538.2 | 11.81
288.15 K, 100 kPa | 1211.11 kg/m3 and 1211.08 kg/m3 | 1530.8 | 10.6
288.15 K, 2000 kPa | 1212.1 kg/m3 | – | –
288.15 K, 5000 kPa | 1213.64 kg/m3 | – | –
288.15 K, 7000 kPa | 1214.66 kg/m3 | – | –
288.15 K, 10000 kPa | 1216.16 kg/m3 | – | –
288.15 K, 15000 kPa | 1218.62 kg/m3 | – | –
288.15 K, 20000 kPa | 1221.01 kg/m3 | – | –
288.15 K, 25000 kPa | 1223.35 kg/m3 | – | –
288.15 K, 30000 kPa | 1225.64 kg/m3 | – | –
288.15 K, 35000 kPa | 1227.87 kg/m3 | – | –
288.15 K, 40000 kPa | 1230.06 kg/m3 | – | –
288.15 K, 45000 kPa | 1232.19 kg/m3 | – | –
288.15 K, 50000 kPa | 1234.29 kg/m3 | – | –
288.15 K, 55000 kPa | 1236.34 kg/m3 | – | –
288.15 K, 60000 kPa | 1238.35 kg/m3 | – | –
288.15 K, 65000 kPa | 1240.32 kg/m3 | – | –
290.65 K, 100 kPa | 1208.87 kg/m3 | 1523.4 | 9.578
293.15 K, 100 kPa | 1206.69 kg/m3 and 1206.66 kg/m3 | 1516 | 8.703
293.15 K, 2000 kPa | 1207.7 kg/m3 | – | –
293.15 K, 5000 kPa | 1209.28 kg/m3 | – | –
293.15 K, 7000 kPa | 1210.32 kg/m3 | – | –
293.15 K, 10000 kPa | 1211.85 kg/m3 | – | –
293.15 K, 15000 kPa | 1214.36 kg/m3 | – | –
293.15 K, 20000 kPa | 1216.8 kg/m3 | – | –
293.15 K, 25000 kPa | 1219.18 kg/m3 | – | –
293.15 K, 30000 kPa | 1221.5 kg/m3 | – | –
293.15 K, 35000 kPa | 1223.78 kg/m3 | – | –
293.15 K, 40000 kPa | 1226 kg/m3 | – | –
293.15 K, 45000 kPa | 1228.17 kg/m3 | – | –
293.15 K, 50000 kPa | 1230.29 kg/m3 | – | –
293.15 K, 55000 kPa | 1232.38 kg/m3 | – | –
293.15 K, 60000 kPa | 1234.42 kg/m3 | – | –
293.15 K, 65000 kPa | 1236.41 kg/m3 | – | –
295.65 K, 100 kPa | 1204.45 kg/m3 | 1508.6 | 7.913
298.15 K, 100 kPa | 1202.27 kg/m3 and 1202.23 kg/m3 | 1501.2 | 7.23
298.15 K, 2000 kPa | 1203.3 kg/m3 | – | –
298.15 K, 5000 kPa | 1204.91 kg/m3 | – | –
298.15 K, 7000 kPa | 1205.97 kg/m3 | – | –
298.15 K, 10000 kPa | 1207.53 kg/m3 | – | –
298.15 K, 15000 kPa | 1210.08 kg/m3 | – | –
298.15 K, 20000 kPa | 1212.57 kg/m3 | – | –
298.15 K, 25000 kPa | 1215 kg/m3 | – | –
298.15 K, 30000 kPa | 1217.36 kg/m3 | – | –
298.15 K, 35000 kPa | 1219.67 kg/m3 | – | –
298.15 K, 40000 kPa | 1221.93 kg/m3 | – | –
298.15 K, 45000 kPa | 1224.14 kg/m3 | – | –
298.15 K, 50000 kPa | 1226.3 kg/m3 | – | –
298.15 K, 55000 kPa | 1228.41 kg/m3 | – | –
298.15 K, 60000 kPa | 1230.48 kg/m3 | – | –
298.15 K, 65000 kPa | 1232.51 kg/m3 | – | –
300.65 K, 100 kPa | 1200.01 kg/m3 | 1493.9 | 6.607
303.15 K, 100 kPa | 1197.82 kg/m3 and 1197.79 kg/m3 | 1486.6 | 6.079
303.15 K, 2000 kPa | 1198.88 kg/m3 | – | –
303.15 K, 5000 kPa | 1200.52 kg/m3 | – | –
303.15 K, 7000 kPa | 1201.6 kg/m3 | – | –
303.15 K, 10000 kPa | 1203.2 kg/m3 | – | –
303.15 K, 15000 kPa | 1205.8 kg/m3 | – | –
303.15 K, 20000 kPa | 1208.33 kg/m3 | – | –
303.15 K, 25000 kPa | 1210.8 kg/m3 | – | –
303.15 K, 30000 kPa | 1213.21 kg/m3 | – | –
303.15 K, 35000 kPa | 1215.57 kg/m3 | – | –
303.15 K, 40000 kPa | 1217.86 kg/m3 | – | –
303.15 K, 45000 kPa | 1220.11 kg/m3 | – | –
303.15 K, 50000 kPa | 1222.3 kg/m3 | – | –
303.15 K, 55000 kPa | 1224.45 kg/m3 | – | –
303.15 K, 60000 kPa | 1226.55 kg/m3 | – | –
303.15 K, 65000 kPa | 1228.61 kg/m3 | – | –
305.65 K, 100 kPa | 1195.57 kg/m3 | 1479.3 | 5.609
308.15 K, 100 kPa | 1193.36 kg/m3 and 1193.34 kg/m3 | 1472 | 5.18
308.15 K, 2000 kPa | 1194.44 kg/m3 | – | –
308.15 K, 5000 kPa | 1196.12 kg/m3 | – | –
308.15 K, 7000 kPa | 1197.22 kg/m3 | – | –
308.15 K, 10000 kPa | 1198.85 kg/m3 | – | –
308.15 K, 15000 kPa | 1201.5 kg/m3 | – | –
308.15 K, 20000 kPa | 1204.09 kg/m3 | – | –
308.15 K, 25000 kPa | 1206.61 kg/m3 | – | –
308.15 K, 30000 kPa | 1209.06 kg/m3 | – | –
308.15 K, 35000 kPa | 1211.45 kg/m3 | – | –
308.15 K, 40000 kPa | 1213.79 kg/m3 | – | –
308.15 K, 45000 kPa | 1216.07 kg/m3 | – | –
308.15 K, 50000 kPa | 1218.3 kg/m3 | – | –
308.15 K, 55000 kPa | 1220.48 kg/m3 | – | –
308.15 K, 60000 kPa | 1222.62 kg/m3 | – | –
308.15 K, 65000 kPa | 1224.71 kg/m3 | – | –
310.65 K, 100 kPa | 1191.11 kg/m3 | 1464.8 | 4.795
313.15 K, 100 kPa | 1188.89 kg/m3 and 1188.87 kg/m3 | 1457.6 | 4.455
313.15 K, 2000 kPa | 1189.99 kg/m3 | – | –
313.15 K, 5000 kPa | 1191.7 kg/m3 | – | –
313.15 K, 7000 kPa | 1192.83 kg/m3 | – | –
313.15 K, 10000 kPa | 1194.49 kg/m3 | – | –
313.15 K, 15000 kPa | 1197.2 kg/m3 | – | –
313.15 K, 20000 kPa | 1199.83 kg/m3 | – | –
313.15 K, 25000 kPa | 1202.4 kg/m3 | – | –
313.15 K, 30000 kPa | 1204.9 kg/m3 | – | –
313.15 K, 35000 kPa | 1207.33 kg/m3 | – | –
313.15 K, 40000 kPa | 1209.71 kg/m3 | – | –
313.15 K, 45000 kPa | 1212.03 kg/m3 | – | –
313.15 K, 50000 kPa | 1214.3 kg/m3 | – | –
